Assay results from patent US10351522B2, “Sulfonamide derivative and pharmaceutically acceptable acid addition salt thereof” (UNIVERSITY OF TSUKUBA, priority 2015, dated 2019).
Read-outs that look alike come from different tables or passages of the source.

Legend:
human OX1R = target: T1, human OX1R (Homo sapiens, UniProt O43613); test: Agonist activity against OX1R: intracellular calcium (Fura-2AM, FDSS7000) in CHOOX1R cells; type: cell-based; settings: relative to orexin-A as full agonist (100%); for Emax at 0.1 µM / Emax at 1 µM / Emax at 10 µM: read-out: Response (%) OX1R
T1 construct: expressed in transfected cells; host or cells: CHO (Chinese hamster ovary) cells, line CHOOX1R, co-expressing NFAT-luciferase
T1 sequence (O43613 1-425): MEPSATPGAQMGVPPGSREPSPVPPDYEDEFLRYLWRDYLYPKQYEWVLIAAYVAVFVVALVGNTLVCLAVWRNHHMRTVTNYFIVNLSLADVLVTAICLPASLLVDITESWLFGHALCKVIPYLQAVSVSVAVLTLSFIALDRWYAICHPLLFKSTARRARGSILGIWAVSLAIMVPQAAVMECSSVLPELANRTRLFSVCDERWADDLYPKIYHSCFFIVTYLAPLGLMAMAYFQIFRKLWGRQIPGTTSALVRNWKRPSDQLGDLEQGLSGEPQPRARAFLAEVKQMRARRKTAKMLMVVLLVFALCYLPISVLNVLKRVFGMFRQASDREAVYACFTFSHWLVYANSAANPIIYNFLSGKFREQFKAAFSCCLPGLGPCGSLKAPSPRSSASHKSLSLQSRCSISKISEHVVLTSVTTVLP
Method in brief: (§1)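 Response is agonist activity at 0.1, 1.0 or 10 μM compound as a percentage of the orexin-A full-agonist maximum, taken from 340/380 nm Fura-2 ratio changes. Each cell line is CHO constitutively expressing human OX1R or OX2R with NFAT-luciferase, dye-loaded 60 min with 5 μM Fura-2AM; compound range 10^−7–10^−5 M, 1% DMSO.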

C57BL/6 wild-type mouse = test: Awakening effect on wild-type mouse by light period intraventricular administration (EEG/EMG hypnogram); type: in vivo; settings: 10 nmol intraventricular at ZT6 (light period), hypnogram for 3 hr
Description: Awakening Effect on Wild-Type Mouse by Light Period Intraventricular Administration of the Compound of the Present Invention
As the experiment animal, C57BL/6 lineage wild-type mouse (male) was used. The mice before and after 9-week-old (±1 week) underwent surgery for embedding electroencephalogram electrodes into the skull (Bregma: X=1.5; Y=0.6, Lambda: X=1.5; Y=0) and inserting electromyogram electrodes into the trapezius muscle under isoflurane anesthesia. The mice for intraventricular administration also underwent cannula embedding into lateral cerebral ventricle (Bregma: X=−0.9; Y=−0.3). From two weeks thereafter, the administration and electroencephalogram measurement were started. The experiment was conducted under a light-dark cycle environment in which the light period started at 9 (ZT0) and the dark period started at 21 (ZT12).
The test compound (compound of Example 40) (10 nmol; dissolved in 5% chromophore-containing saline) (5 μl) was injected at ZT6 into the lateral cerebral ventricle of wild-type mice under isoflurane anesthesia through cannula by using a microsyringe pump at a flow rate of 0.5 μl/min, and electroencephalogram and electromyogram was measured thereafter. The administration was started with 5% chromophore-containing saline (Vehicle) as a control, and then the test compound was administered. […]

human OX2R = target: T2, human OX2R (Homo sapiens, UniProt O43614); test: Agonist activity against OX2R: intracellular calcium (Fura-2AM, FDSS7000) in CHOOX2R cells; type: cell-based; settings: relative to orexin-A as full agonist (100%)
T2 construct: expressed in transfected cells; host or cells: CHO (Chinese hamster ovary) cells, line CHOOX2R, co-expressing NFAT-luciferase
T2 sequence (O43614 1-444): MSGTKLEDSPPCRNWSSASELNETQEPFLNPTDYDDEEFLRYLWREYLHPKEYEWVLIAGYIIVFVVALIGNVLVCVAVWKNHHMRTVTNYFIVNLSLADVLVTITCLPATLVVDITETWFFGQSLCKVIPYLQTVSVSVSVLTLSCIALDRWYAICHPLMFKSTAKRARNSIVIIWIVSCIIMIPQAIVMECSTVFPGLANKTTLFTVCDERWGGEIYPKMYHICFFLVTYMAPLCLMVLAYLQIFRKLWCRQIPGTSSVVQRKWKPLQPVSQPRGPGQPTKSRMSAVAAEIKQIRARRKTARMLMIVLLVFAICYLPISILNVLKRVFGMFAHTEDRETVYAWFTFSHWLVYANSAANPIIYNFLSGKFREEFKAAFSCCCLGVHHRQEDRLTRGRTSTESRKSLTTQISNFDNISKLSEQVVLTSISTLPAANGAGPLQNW
Method in brief: as §1

| SMILES | Response (%) OX2R (human OX2R; 0.1 μM test compound) | Response (%) OX2R (human OX2R; 1.0 μM test compound) | Response (%) OX2R (human OX2R; 10 μM test compound) | Response (%) OX1R (human OX1R; 0.1 μM test compound) | Response (%) OX1R (human OX1R; 1.0 μM test compound) | Response (%) OX1R (human OX1R; 10 μM test compound) | Response (%) OX2R (human OX2R; test compound 0.1 μM) | Response (%) OX2R (human OX2R; test compound 1.0 μM) | Response (%) OX2R (human OX2R; test compound 10 μM) | also measured |
| --- | --- | --- | --- | --- | --- | --- | --- | --- | --- | --- |
| COc1ccc(-c2cccc(C(=O)N(C)C)c2)cc1S(=O)(=O)Nc1cccc(NC(=O)Nc2cccc(N(C)C)c2)c1 [Example 40, 3′-(N-(3-(3-(3-(dimethylamino)phenyl)ureido)phenyl)sulfamoyl)-4′-methoxy-N,N-dimethyl-[1,1′-biphenyl]-3-carboxamide] | 77% | 60% | 52% | – | – | – | – | – | – | Emax at 0.1 µM (human OX1R; 0.1 μM test compound): < 5%; Emax at 1 µM (human OX1R; 1.0 μM test compound): < 5%; Emax at 10 µM (human OX1R; 10 μM test compound): < 5%; conscious time compared to Vehicle administration (C57BL/6 wild-type mouse): increased |
| COc1ccc(-c2cccc(C(=O)N(C)C)c2)cc1S(=O)(=O)Nc1cccc(NC(=O)OC(C)(C)C)c1 [Example 74] | 15% | 13% | 64% | 6% | 7% | 7% | – | – | – | – |
| CCOc1ccc(-c2cccc(C(=O)N(C)C)c2)cc1S(=O)(=O)Nc1cccc(NC(=O)Nc2cccc(N(C)C)c2)c1 [Example 119, 3′-(N-(3-(3-(3-(dimethylamino)phenyl)ureido)phenyl)sulfamoyl)-4′-ethoxy-N,N-dimethyl-[1,1′-biphenyl]-3-carboxamide] | – | – | – | – | – | – | 49% | 85% | 98% | Emax at 0.1 µM (human OX1R; test compound 0.1 μM): < 5%; Emax at 1 µM (human OX1R; test compound 1.0 μM): < 5%; Emax at 10 µM (human OX1R; test compound 10 μM): < 5% |
| CNc1cccc(NS(=O)(=O)c2cc(-c3cccc(C(=O)N(C)C)c3)ccc2OC)c1 [Example 95, 4′-methoxy-N,N-dimethyl-3′-(N-(3-(methylamino)phenyl)sulfamoyl)-[1,1′-biphenyl]-3-carboxamide] | – | – | – | – | – | – | <5% | 11% | 68% | Emax at 0.1 µM (human OX1R; test compound 0.1 μM): < 5%; Emax at 1 µM (human OX1R; test compound 1.0 μM): < 5%; Emax at 10 µM (human OX1R; test compound 10 μM): < 5% |
| COc1ccc(-c2cccc(C(=O)N(C)C)c2)cc1S(=O)(=O)Nc1cccc(NC(=O)OCc2ccccc2)c1 [Example 73] | 25% | 49% | 11% | 6% | 6% | <5% | – | – | – | – |
| COc1ccc(-c2cccc(C(=O)N(C)C)c2)cc1S(=O)(=O)Nc1cccc(N2CCCN(c3ccccc3)C2=O)c1 [Example 132] | – | – | – | – | – | – | 42% | 100% | 101% | Response (%) OX1R (human OX1R; test compound 0.1 μM): <5%; Response (%) OX1R (human OX1R; test compound 1.0 μM): <5%; Response (%) OX1R (human OX1R; test compound 10 μM): 46% |
| COc1ccc(-c2cccc(C(=O)N(C)C)c2)cc1S(=O)(=O)Nc1cccc(N=Nc2ccc(O)cc2NC(=O)OC(C)(C)C)c1 [Example 98] | – | – | – | – | – | – | 13% | 11% | 67% | Response (%) OX1R (human OX1R; test compound 0.1 μM): 8%; Response (%) OX1R (human OX1R; test compound 1.0 μM): 8%; Response (%) OX1R (human OX1R; test compound 10 μM): 9% |

The next lines start with results.

| Response (%) OX2R (human OX2R; 0.1 μM test compound) | Response (%) OX2R (human OX2R; 1.0 μM test compound) | Response (%) OX2R (human OX2R; 10 μM test compound) | Response (%) OX1R (human OX1R; 0.1 μM test compound) | Response (%) OX1R (human OX1R; 1.0 μM test compound) | Response (%) OX1R (human OX1R; 10 μM test compound) | Response (%) OX2R (human OX2R; test compound 0.1 μM) | Response (%) OX2R (human OX2R; test compound 1.0 μM) | Response (%) OX2R (human OX2R; test compound 10 μM) | SMILES | also measured |
| --- | --- | --- | --- | --- | --- | --- | --- | --- | --- | --- |
| – | – | – | – | – | – | <5% | <5% | 12% | COc1cccc(S(=O)(=O)Nc2cccc(NS(=O)(=O)c3cc(-c4cccc(C(=O)N(C)C)c4)ccc3OC)c2)c1 [Example 85, 4′-methoxy-3′-(N-(3-(3-methoxyphenylsulfonamido)phenyl)sulfamoyl)-N,N-dimethyl-[1,1′-biphenyl]-3-carboxamide] | Emax at 0.1 µM (human OX1R; test compound 0.1 μM): < 5%; Emax at 1 µM (human OX1R; test compound 1.0 μM): < 5%; Emax at 10 µM (human OX1R; test compound 10 μM): < 5% |
| 10% | 8% | 19% | 8% | 8% | 7% | – | – | – | COc1ccc(-c2cccc(C(=O)N(C)C)c2)cc1S(=O)(=O)Nc1cccc(NC(=O)c2ccc3c(c2)OCO3)c1 [Example 5] | – |
| 55% | 88% | 81% | – | – | – | – | – | – | COc1ccc(-c2cccc(C(=O)N(C)C)c2)cc1S(=O)(=O)Nc1cccc(NC(=O)Nc2ccccc2)c1 [Example 37, 4′-methoxy-N,N-dimethyl-3′-(N-(3-(3-phenylureido)phenyl)sulfamoyl)-[1,1′-biphenyl]-3-carboxamide] | Emax at 0.1 µM (human OX1R; 0.1 μM test compound): < 5%; Emax at 1 µM (human OX1R; 1.0 μM test compound): < 5%; Emax at 10 µM (human OX1R; 10 μM test compound): < 5% |
| 10% | 10% | 57% | 6% | 6% | 6% | – | – | – | COc1ccc(-c2cccc(C(=O)N(C)C)c2)cc1S(=O)(=O)Nc1cccc(NC(=O)Nc2ccccn2)c1 [Example 68] | – |
| <5% | 6% | 67% | – | – | – | – | – | – | COc1ccc(-c2cccc(C(=O)N(C)C)c2)cc1S(=O)(=O)Nc1cccc(NC(=O)c2ccccc2)c1 [Example 1, 3′-(N-(3-benzamidophenyl)sulfamoyl)-4′-methoxy-N,N-dimethyl-[1,1′-biphenyl]-3-carboxamide] | Emax at 0.1 µM (human OX1R; 0.1 μM test compound): < 5%; Emax at 1 µM (human OX1R; 1.0 μM test compound): < 5%; Emax at 10 µM (human OX1R; 10 μM test compound): < 5% |
| <5% | <5% | 14% | <5% | <5% | <5% | – | – | – | COc1ccc(-c2cccc(C(=O)N(C)C)c2)cc1S(=O)(=O)Nc1cccc(NC(=O)Nc2cccc(C(=O)O)c2)c1 [Example 48] | – |
